From patent US7250400B2, “Peptides and derivatives thereof showing cell attachment, spreading and detachment activity” (Regen Biotech, Inc., priority 2002, dated 2007)
“Also recorded” adds a separate entry of the source.

How the values were obtained:
Assay type in all cases: cell-based
[1] = tested on: HCE cells; assay: Effect of synthetic peptides on βig-h3-mediated HCE cell adhesion; settings: 100 μM peptide; for cell detachment activity: HCE cell adhesion to βig-h3, FIG. 8a; for inhibition of HCE cell adhesion to βig-h3: preincubation 30 min, dishes coated with 10 μg/ml βig-h3, FIG. 8a
Description: (§1) The recombinant βig-h3 fas-1 domain proteins prepared above were assayed for cell attachment activity. First, the recombinant βig-h3 proteins were let to adhere to the bottoms of 96-well microculture plates (Falcon) by incubation at 37° C. for 1 hour and blocked with PBS containing 0.2% BSA. HCE cells were suspended in culture media at a density of 2×10^5 cells/ml. 0.1 ml of the cell suspension was added to each well of the plates coated with the recombinant proteins. Following incubation at 37° C. for 1 hour, unattached cells were removed by washing with PBS. Attached cells were incubated for 1 hour at 37° C. in 50 mM citrate buffer, pH 5.0, containing 3.75 mM p-nitrophenol-N-acetyl 1-β-D-glycosaminide as a hexosaminidase substrate and 0.25% Triton X-100, followed by the addition of 50 mM glycine buffer, pH 10.4, containing 5 mM EDTA to block the enzyme activity. A measurement was made of absorbance at 405 nm in a Multiskan MCC/340 microplate reader.
Effect of the peptides containing conserved sequences of fas-1 domains of βig-h3 on βig-h3-mediated cell adhesion was examined with HCE cells. Cells were preincubated for 30 min in media containing 100 μM of each of the four synthetic peptides or no peptides and transferred to plastic culture dishes coated with 10 μg/ml BSA or 10 μg/ml βig-h3. The attached cells were subjected to quantitative hexosaminidase analysis as in Example 1-2.

[2] = tested on: HCE cells; assay: Cell adhesion of HCE cells to surfaces coated with synthetic peptides; settings: plates coated with peptide at 0-120 μM, HCE cells 37° C. 1 hour, FIG. 9a
Description: as §1
An experiment was carried out to determine whether each of the synthetic peptides is able to mediate cell adhesion. Well plates were coated with each peptide at concentrations of 0, 20, 40, 60, 80, 100 and 120 μM and then incubated with HCE cells at 37° C. for 1 hour. The attached cells were quantitatively analyzed with hexosaminidase as in Example 1-2.

[3] = tested on: HCE cells; assay: Effect of synthetic peptides on HCE cell adhesion to various extracellular matrix proteins; settings: 100 μM peptide; for inhibition of cell adhesion to fibronectin: plates coated with fibronectin; for inhibition of cell adhesion to fibronectin / inhibition of cell adhesion to laminin / inhibition of cell adhesion to type I collagen / inhibition of cell adhesion to type II collagen / inhibition of cell adhesion to vitronectin: FIG. 10a; for inhibition of cell adhesion to laminin: plates coated with laminin; for inhibition of cell adhesion to type I collagen: plates coated with type I collagen; for inhibition of cell adhesion to type II collagen: plates coated with type II collagen; for inhibition of cell adhesion to vitronectin: plates coated with vitronectin; for inhibition of cell adhesion to βig-h3: plates coated with βig-h3, FIG. 10a
Description: as §1
To determine whether the inhibitory activity of synthetic peptides EPDIM (SEQ ID NO:3 and NKDIL (SEQ ID NO:2) against cell adhesion is specific to βig-h3, effects of the synthetic peptides on cell adhesion to various matrix proteins were examined. HCE cells were preincubated in media added with 100 μM of the synthetic peptide EPDIM (SEQ ID NO:3) or NKDIL (SEQ ID NO:2) or none of them and then applied to plates coated with various matrix proteins, including βig-h3, fibronectin, laminin, vitronectin, type I and type II collagen. After 1 hour of incubation, the attached cells were quantitatively analyzed with hexosaminidase as in Example 1-2.

[4] = tested on: HCE cells; assay: Inhibition of HCE cell adhesion to βig-h3, fibronectin and laminin at various concentrations of EPDIM; settings: EPDIM 0-1,200 μM, FIG. 10b
Description: as §1
HCE cells were incubated in media containing the synthetic peptide EPDIM (SEQ ID NO:3) at concentrations of 0, 200, 400, 600, 800, 1,000 and 1,200 μM and applied to plates coated with βig-h3, fibronectin and laminin. Following incubation for 1 hour, the attached cells were quantitatively analyzed with hexosaminidase as in Example 1-2.

[5] = tested on: α3β1 integrin; assay: Function-blocking anti-integrin antibodies on HCE cell adhesion to plates coated with EPDIM or NKDIL; settings: plates coated with 100 μM peptide, antibodies 5 μg/ml, FIG. 9b
Description: Function-blocking experiments using monoclonal antibodies against various integrin subunits were carried out to examine whether α3β1 integrin, known as a surface receptor of βig-h3, would be involved in the cell adhesion mediated by the synthetic peptides EPDIM (SEQ ID NO:3) and NKDIL (SEQ ID NO:2). HCE was preincubated at 37° C. for 30 mm in the presence of each of the monoclonal antibodies (5 μg/ml) against different types of integrins. The preincubated cells were transferred onto plates precoated with 100 μM EPDIM (SEQ ID NO:3) or 100 μM NKDIL (SEQ ID NO:2) and then incubated further at 37° C. for 1 hour, followed by the quantitative analysis with hexosaminidase substrate as in Example 1-2.

[6] = tested on: HCE cells; assay: Cell attachment activity of recombinant βig-h3 fas-1 domain proteins coated on plates (hexosaminidase assay); settings: HCE cells on plates coated with the recombinant protein, 37° C. 1 hour, FIG. 2
Description: as §1

[7] = tested on: HCE cells; assay: Cell attachment activity of substitution mutants of the 4th fas-1 domain of βig-h3; settings: HCE cells on plates coated with the mutant protein, 37° C. 1 hour, FIG. 6
Description: as §1
Examination was made of the cell attachment activity of the mutated proteins wherein the Pro616, Asp617 and Ile618 of βigh3 D-IV were substituted, in combination, with Ser, Ala and Ser, respectively, that is, βigh3 D-IV-sDI, βigh3 D-IV-Pal, βigh3 D-IV-PDs, and βigh3 D-IV-sas. To this end, HCE cells were incubated at 37° C. for 1 hour in well plates coated with the mutant proteins, followed by subjecting the attached cells to the hexosaminidase substrate as in Example 1-2.

α3β1 integrin, sequence (P26006 33-872 limits assumed): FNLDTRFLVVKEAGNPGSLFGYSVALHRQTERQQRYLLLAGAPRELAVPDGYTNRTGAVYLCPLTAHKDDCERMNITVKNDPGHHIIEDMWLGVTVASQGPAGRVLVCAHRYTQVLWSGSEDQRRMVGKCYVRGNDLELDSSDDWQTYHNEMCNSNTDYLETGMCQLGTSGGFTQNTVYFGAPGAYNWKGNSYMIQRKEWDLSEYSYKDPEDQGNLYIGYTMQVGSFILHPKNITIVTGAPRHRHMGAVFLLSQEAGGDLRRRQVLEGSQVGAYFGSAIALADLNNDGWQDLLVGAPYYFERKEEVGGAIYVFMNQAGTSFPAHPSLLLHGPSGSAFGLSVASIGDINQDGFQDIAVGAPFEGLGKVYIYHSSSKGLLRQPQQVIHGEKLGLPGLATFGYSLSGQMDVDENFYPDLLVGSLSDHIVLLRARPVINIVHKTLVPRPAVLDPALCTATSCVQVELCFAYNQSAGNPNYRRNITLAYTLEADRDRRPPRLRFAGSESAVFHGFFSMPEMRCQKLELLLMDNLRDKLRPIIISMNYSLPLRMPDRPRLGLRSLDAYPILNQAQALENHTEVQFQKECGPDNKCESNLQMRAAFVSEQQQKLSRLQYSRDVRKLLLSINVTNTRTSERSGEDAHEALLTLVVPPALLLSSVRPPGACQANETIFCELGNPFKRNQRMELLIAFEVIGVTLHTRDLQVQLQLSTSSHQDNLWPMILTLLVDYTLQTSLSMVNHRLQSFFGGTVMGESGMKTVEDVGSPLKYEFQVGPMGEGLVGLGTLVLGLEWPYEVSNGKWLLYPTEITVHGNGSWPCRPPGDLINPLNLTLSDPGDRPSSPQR
α3β1 integrin, sequence (P26006 876-1051 limits assumed): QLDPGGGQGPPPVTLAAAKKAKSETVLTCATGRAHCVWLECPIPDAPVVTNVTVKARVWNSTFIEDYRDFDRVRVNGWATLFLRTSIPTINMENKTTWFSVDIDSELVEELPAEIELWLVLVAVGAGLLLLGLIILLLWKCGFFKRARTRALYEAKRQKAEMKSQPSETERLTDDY
α3β1 integrin, sequence (P05556 21-798, further chain): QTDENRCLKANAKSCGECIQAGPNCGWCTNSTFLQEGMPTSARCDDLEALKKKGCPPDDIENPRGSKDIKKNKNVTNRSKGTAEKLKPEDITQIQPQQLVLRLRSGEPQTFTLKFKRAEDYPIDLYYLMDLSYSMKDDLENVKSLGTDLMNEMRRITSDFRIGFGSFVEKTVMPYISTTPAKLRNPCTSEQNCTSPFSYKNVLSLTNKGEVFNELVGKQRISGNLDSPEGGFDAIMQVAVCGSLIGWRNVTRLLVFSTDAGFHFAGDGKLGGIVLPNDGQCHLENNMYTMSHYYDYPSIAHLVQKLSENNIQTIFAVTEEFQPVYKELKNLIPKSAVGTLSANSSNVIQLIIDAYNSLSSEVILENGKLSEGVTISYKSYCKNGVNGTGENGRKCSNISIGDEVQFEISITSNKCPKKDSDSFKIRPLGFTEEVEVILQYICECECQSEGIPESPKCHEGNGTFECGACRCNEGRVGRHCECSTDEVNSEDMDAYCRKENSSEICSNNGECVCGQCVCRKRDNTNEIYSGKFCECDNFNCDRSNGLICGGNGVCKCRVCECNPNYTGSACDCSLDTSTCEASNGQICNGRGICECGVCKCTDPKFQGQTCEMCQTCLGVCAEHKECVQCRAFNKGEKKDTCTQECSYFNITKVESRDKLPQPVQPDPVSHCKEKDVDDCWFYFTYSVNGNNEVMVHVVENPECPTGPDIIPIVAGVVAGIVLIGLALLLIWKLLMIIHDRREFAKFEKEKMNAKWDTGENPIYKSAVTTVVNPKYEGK

Molecule	cell detachment activity [1]	inhibition of HCE cell adhesion to βig-h3 [1]	ability to mediate cell adhesion [2]	cell attachment and spreading activity [6]	cell attachment activity [7]	other results
DEMPI [reference compound]	failed to show; also recorded: low cell detachment activity	did not affect cell adhesion	not active in cell adhesion	–	–	–
EPDIM [synthetic peptide, a.a]	very excellent cell detachment effect; also recorded: excellent cell detachment activity	significant suppression of the cell attachment activity; also recorded: significantly blocked	capable of mediating cell adhesion in dose-dependent manners; also recorded: mediate cell adhesion in dose-dependent manners	–	–	inhibition of cell adhesion to fibronectin [3]: weakly inhibited; inhibition of cell adhesion to laminin [3]: efficiently blocked; inhibition of cell adhesion to type I collagen [3]: did not affect; inhibition of cell adhesion to type II collagen [3]: did not affect; inhibition of cell adhesion to vitronectin [3]: did not affect; inhibition of cell adhesion to βig-h3 [3]: efficiently blocked; inhibitory effect on cell adhesion to fibronectin [4]: dose-dependent; inhibitory effect on cell adhesion to laminin [4]: dose-dependent; inhibitory effect on cell adhesion to βig-h3 [4]: dose-dependent; α3β1 integrin as receptor in peptide-mediated cell adhesion [5]: revealed to act as a receptor
KADHH [synthetic peptide, a.a]	relatively very low cell detachment effects	weak suppression of cell adhesion; also recorded: weakly inhibited	low in activity compared to NKDIL	–	–	–
NKDIL [synthetic peptide, a.a]	very excellent cell detachment effect; also recorded: excellent cell detachment activity	significant suppression of the cell attachment activity; also recorded: significantly blocked	capable of mediating cell adhesion in dose-dependent manners; also recorded: mediate cell adhesion in dose-dependent manners	–	–	inhibition of cell adhesion to fibronectin [3]: weakly inhibited; inhibition of cell adhesion to laminin [3]: efficiently blocked; inhibition of cell adhesion to type I collagen [3]: did not affect; inhibition of cell adhesion to type II collagen [3]: did not affect; inhibition of cell adhesion to vitronectin [3]: did not affect; inhibition of cell adhesion to βig-h3 [3]: efficiently blocked; α3β1 integrin as receptor in peptide-mediated cell adhesion [5]: revealed to act as a receptor
βigh3-D-II: recombinant His-tagged 2nd fas-1 domain of human βig-h3, amino acid residues 242 to 372 (protein) NIQQIIEIEDTFETLRAAVAASGLNTMLEGNGQYTLLAPTNEAFEKIPSETLNRILGDPEALRDLLNNHILKSAMCAEAIVAGLSVETLEGTTLEVGCSGDMLTINGKAIISNKDILATNGVIHYIDELLIHHHHHH	–	–	–	comparable to the activity of wild type βig-h3	–	–
βigh3-D-III: recombinant His-tagged 3rd fas-1 domain of human βig-h3, amino acid residues 373 to 501 (protein) PDSAKTLFELAAESDVSTAIDLFRQAGLGNHLSGSERLTLLAPLNSVFKDGTPPIDAHTRNLLRNHIIKDQLASKYLYHGQTLETLGGKKLRVFVYRNSLCIENSCIAAHDKRGRYGTLFTMDRVLTPPHHHHHH	–	–	–	almost no activity	–	–
βigh3-D-IV: recombinant His-tagged 4th fas-1 domain of human βig-h3, amino acid residues 501 to 632 (protein) MGTVMDVLKGDNRFSMLVAAIQSAGLTETLNREGVYTVFAPTNEAFRALPPRERSRLLGDAKELANILKYHIGDEILVSGGIGALVRLKSLQGDKLEVSLKNNVVSVNKEPVAEPDIMATNGVVHVITNVLHHHHHH	–	–	–	comparable to the activity of wild type βig-h3	–	–
βigh3 D-IV-Pal: βigh3 D-IV mutant having Ala instead of Asp617 (protein) MGTVMDVLKGDNRFSMLVAAIQSAGLTETLNREGVYTVFAPTNEAFRALPPRERSRLLGDAKELANILKYHIGDEILVSGGIGALVRLKSLQGDKLEVSLKNNVVSVNKEPVAEPAIMATNGVVHVITNVLHHHHHH	–	–	–	–	significantly blocked cell adhesion	–
βigh3 D-IV-PDs: βigh3 D-IV mutant having Ser instead of Ile618 (protein) MGTVMDVLKGDNRFSMLVAAIQSAGLTETLNREGVYTVFAPTNEAFRALPPRERSRLLGDAKELANILKYHIGDEILVSGGIGALVRLKSLQGDKLEVSLKNNVVSVNKEPVAEPDSMATNGVVHVITNVLHHHHHH	–	–	–	–	significantly blocked cell adhesion	–
βigh3 DIV-sas: βigh3 D-IV mutant in which the three amino acids Pro616, Asp617, Ile618 were mutated to Ser, Ala, Ser (protein) MGTVMDVLKGDNRFSMLVAAIQSAGLTETLNREGVYTVFAPTNEAFRALPPRERSRLLGDAKELANILKYHIGDEILVSGGIGALVRLKSLQGDKLEVSLKNNVVSVNKEPVAESASMATNGVVHVITNVLHHHHHH	–	–	–	–	far lower than the control	–
βigh3 D-IV-sDI: βigh3 D-IV mutant having Ser instead of Pro616 (protein) MGTVMDVLKGDNRFSMLVAAIQSAGLTETLNREGVYTVFAPTNEAFRALPPRERSRLLGDAKELANILKYHIGDEILVSGGIGALVRLKSLQGDKLEVSLKNNVVSVNKEPVAESDIMATNGVVHVITNVLHHHHHH	–	–	–	–	comparable to that of the wild type control	–
βigh3-D-I: recombinant His-tagged 1st fas-1 domain of human βig-h3, amino acid residues 133 to 236 (protein) EGPGSFTIFAPSNEAWASLPAEVLDSLVSNVNIELLNALRYHMVGRRVLTDELKHGMTLTSMYQNSNIQIHHYPNGIVTVNCARLLKADHHATNGVVHLIDKVIHHHHHH	–	–	–	weak activity	–	–
